In patent publication US20140113934A1, “HETEROCYCLIC COMPOUNDS FOR TREATING HELMINTH INFECTIONS” (E I DU PONT DE NEMOURS AND COMPANY, priority 2011, published 2014):

What follows are compounds tested on Haemonchus contortus (assay: Test A: control of barber pole worm, eggs in culture media, mortality after 120 hours (L3 stage)). Conditions: not given.
Type: cell-based
Experimental: For evaluating control of the barber pole worm (Haemonchus contortus), a test compound was solubilized in culture media (Earle's Balanced Salt Solution) containing Haemonchus contortus eggs to obtain a final test compound concentration of 2.0 ppm. The test unit was evaluated for mortality 120 hours later after which the eggs had hatched and had advanced to the L3 stage.

Row | Compound | mortality at 2 ppm
1 | O=S(=O)(NCc1ccnc2ccccc12)c1ccc(S(=O)(=O)c2ccccc2)s1 [Compound 36] | 100%
2 | O=S(=O)(NCc1ccnc2ccccc12)c1cccc(COc2ccc(Cl)cc2Cl)c1 [Compound 44] | 100%
3 | O=S(=O)(NCc1ccnc2ccccc12)c1cccc(OCc2ccccc2)c1 [Compound 40] | 100%
4 | O=S(=O)(NCc1ccnc2ccccc12)c1cccc(COc2ccccc2)c1 [Compound 46] | 100%
5 | O=S(=O)(NCc1ccnc2ccccc12)c1cccc(Cc2ccccc2)c1 [Compound 64] | 100%
6 | COC(=O)c1ccccc1Oc1ccc(S(=O)(=O)NCc2ccnc3ccccc23)cc1 [Compound 16, methyl 2-[4-[[(4-quinolinylmethyl)amino]sulfonyl]phenoxy]benzoate] | 100%
7 | O=S(=O)(NCc1ccnc2ccccc12)c1ccc(C#Cc2ccccc2Cl)s1 [Compound 75] | 100%
8 | N#Cc1c(Cl)cccc1Oc1ccc(S(=O)(=O)NCc2ccnc3ccccc23)cc1 [Compound 2, 4-(3-chloro-2-cyanophenoxy)-N-(4-quinolinylmethyl)benzenesulfonamide] | 100%
9 | O=S(=O)(NCc1ccnc2ccccc12)c1ccc(COc2ccccc2)cc1Cl [Compound 37] | 100%
10 | O=S(=O)(NCc1ccnc2ccccc12)c1ccc(C#Cc2ccc(Cl)cc2Cl)s1 [Compound 73] | 100%
11 | O=S(=O)(NCc1ccnc2ccccc12)c1ccc(C#Cc2ccccc2)s1 [Compound 74] | 100%
12 | O=S(=O)(NCc1ccnc2ccccc12)c1ccc(Cc2ccccc2)s1 [Compound 80] | 100%
13 | O=S(=O)(NCc1ccnc2ccccc12)c1ccc(Cc2ccc(F)cc2F)s1 [Compound 99] | 100%
14 | N#Cc1ccccc1Oc1ccc(S(=O)(=O)NCc2ccnc3ccccc23)cn1 [Compound 41] | 100%
15 | O=S(=O)(NCc1ccnc2ccccc12)c1cccc(Cc2ccc(F)cc2)c1 [Compound 92] | 100%
16 | O=S(=O)(NCc1ccnc2ccccc12)c1ccc(Cc2ccccc2)cc1 [Compound 5, 4-(phenylmethyl)-N-(4-quinolinylmethyl)benzenesulfonamide] | 100%

What follows are compounds tested on Haemonchus contortus (assay: Test B: Haemonchus contortus burdens in orally infected mice after gavage of test compound). Conditions: mice infected orally with 600 L3 Haemonchus contortus larvae; gavage 10.0 mg/kg on day 0; burdens on day 5 relative to vehicle-dosed controls.
Type: in vivo
Experimental: For evaluating control of the barber pole worm (Haemonchus contortus), mice were each infected orally with 600 L3 Hlaemonchus contortus larvae on Day −3. On day 0, the infected mice were gavaged with a test compound (n=1) in a propylene glycol/glycerol formal solution at the rate of 10.0 mg/kg body weight. On day 5, the mice were euthanized and evaluated for Haemonchus contortus burdens relative to the vehicle-dosed controls. The range of means for the number of Haemonchus contortus in the various tests in which these compounds were studied was 55-184.

Row | Compound | % Efficacy
17 | CNC(=O)c1ccc(Oc2ccc(S(=O)(=O)NCc3ccnc4ccccc34)cc2)cc1 [Compound 51] | 74%
18 | COc1ccccc1C(=O)Nc1ccc(S(=O)(=O)NCc2ccnc3ccccc23)cc1 [Compound 69] | 90%
19 | O=S(=O)(NCc1ccnc2ccccc12)c1ccc(Cc2ccccc2F)cc1 [Compound 91] | 93%
20 | O=S(=O)(NCc1ccnc2ccccc12)c1ccc(Nc2ccccc2)cc1 [Compound 70] | 89%
21 | 4-(2-chloro-4-cyanophenoxy)-N-(quinolinylmethyl)benzenesulfonamide [Compound 15] | 79%
22 | O=S(=O)(NCc1ccnc2ccccc12)c1ccc(CCc2ccccc2)cc1 [Compound 38] | 75%
23 | N#Cc1cccc(Oc2ccc(S(=O)(=O)NCc3ccnc4ccccc34)cc2)c1 [Compound 23] | 54%
24 | O=S(=O)(NCc1ccnc2ccccc12)c1ccc(COc2ccc(Cl)cc2)cc1 [Compound 34] | 71%
25 | O=C(Nc1ccc(S(=O)(=O)NCc2ccnc3ccccc23)cc1)c1ccccc1Cl [Compound 56] | 78%
26 | O=S(=O)(NCc1ccnc2ccccc12)c1ccc(C#Cc2ccccc2)cc1 [Compound 28] | 62%
27 | O=S(=O)(NCc1ccnc2ccccc12)c1cccc(Cc2ccccc2)c1 [Compound 64] | 70%
28 | O=S(=O)(NCc1ccnc2ccccc12)c1ccc(C(F)c2ccccc2)cc1 (racemic) [Compound 76] | 87%
29 | N#Cc1cc(Br)ccc1Oc1ccc(S(=O)(=O)NCc2ccnc3ccccc23)cc1 [Compound 31] | 66%
30 | COC(=O)c1ccc(Oc2ccc(S(=O)(=O)NCc3ccnc4ccccc34)cc2)c(Cl)c1 [Compound 27] | 78%
31 | N#Cc1c(Cl)cccc1Oc1ccc(S(=O)(=O)NCc2ccnc3ccccc23)cc1 [Compound 2, 4-(3-chloro-2-cyanophenoxy)-N-(4-quinolinylmethyl)benzenesulfonamide] | 76%
32 | O=C(Nc1ccc(S(=O)(=O)NCc2ccnc3ccccc23)cc1)c1ccccc1 [Compound 53] | 61%
33 | N#Cc1ccc(Oc2ccc(S(=O)(=O)NCc3ccnc4ccccc34)cc2)cc1 [Compound 9] | 72%
34 | O=S(=O)(NCc1ccnc2ccccc12)c1ccc(OCc2ccc(Cl)cc2Cl)cc1 [Compound 7] | 61%
35 | O=S(=O)(NCc1ccnc2ccccc12)c1ccc(Cc2ccc(F)cc2F)cc1 [Compound 60] | 76%
36 | O=S(=O)(NCc1ccnc2ccccc12)c1ccc(C#Cc2ccccc2)s1 [Compound 74] | 60%
37 | O=S(=O)(NCc1ccnc2ccccc12)c1ccc(Cc2ccccc2)s1 [Compound 80] | 80%
38 | O=S(=O)(NCc1ccnc2ccccc12)c1cccc(Cc2ccc(F)cc2)c1 [Compound 92] | 73%
39 | O=S(=O)(NCc1ccnc2ccccc12)c1ccc(Cc2ccc(F)cc2)cc1 [Compound 59] | 86%
40 | O=S(=O)(NCc1ccnc2ccccc12)c1ccc(Cc2ccccc2)cc1 [Compound 5, 4-(phenylmethyl)-N-(4-quinolinylmethyl)benzenesulfonamide] | 69%
